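Each compound was tested at five concentrations against cells in 96-well plates for 48 hours. TGI: concentration producing complete growth inhibition.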

Consider four molecules from PubChem BioAssay (NCI).

The test system of one test is OVCAR-3 ovarian. As to the kind of experiment: NCI tumour cell line growth inhibition, 48 h.
Regarding `CC1=NC(=Cc2cc(Br)cc(Br)c2)C(=O)N1n1c(-c2ccccc2)nc2ccccc2c1=O`, the TGI is > 100 µM.
The same measure, in the same setting: the result for `CN1C(=O)c2ccccc2OC12C=Cc1ccc(O)cc1O2` (configuration not stated) reads 63.6 µM; that for `CN(C)CC1CCC/C(=C\c2ccc(Cl)cc2)C1=O` (configuration not stated), 12.1 µM; that for `Cc1cc2c(cc1C)C(=O)C1(C2)Cc2c(C)ccc(C)c2C1=O` (configuration not stated), > 100 µM.

For the next test, the system named is SF-539 CNS. The experiment in a line: NCI tumour cell line growth inhibition, 48 h.
For the molecule `CC1=NC(=Cc2cc(Br)cc(Br)c2)C(=O)N1n1c(-c2ccccc2)nc2ccccc2c1=O`, the TGI is > 100 µM.
For `CN(C)CC1CCC/C(=C\c2ccc(Cl)cc2)C1=O` (configuration not stated), the TGI came to 29.1 µM.
Take `Cc1cc2c(cc1C)C(=O)C1(C2)Cc2c(C)ccc(C)c2C1=O` (configuration not stated): the TGI is > 100 µM.

The subject of another test is A549 NSCLC. As to the kind of experiment: NCI tumour cell line growth inhibition, 48 h.
Turning to `CC1=NC(=Cc2cc(Br)cc(Br)c2)C(=O)N1n1c(-c2ccccc2)nc2ccccc2c1=O`, the TGI is > 100 µM.
For `CN1C(=O)c2ccccc2OC12C=Cc1ccc(O)cc1O2` (configuration not stated), the TGI is > 100 µM.
Regarding `CN(C)CC1CCC/C(=C\c2ccc(Cl)cc2)C1=O` (configuration not stated), the TGI was 32.4 µM.
Turning to `Cc1cc2c(cc1C)C(=O)C1(C2)Cc2c(C)ccc(C)c2C1=O` (configuration not stated), the TGI was > 100 µM.

The next test deals with SK-MEL-5 melanoma. As to the kind of experiment: NCI tumour cell line growth inhibition, 48 h.
`CC1=NC(=Cc2cc(Br)cc(Br)c2)C(=O)N1n1c(-c2ccccc2)nc2ccccc2c1=O`: the TGI was > 100 µM.
On the same count and under the same terms, the result for `CN1C(=O)c2ccccc2OC12C=Cc1ccc(O)cc1O2` (configuration not stated) reads 37.6 µM; that for `CN(C)CC1CCC/C(=C\c2ccc(Cl)cc2)C1=O` (configuration not stated), 12.3 µM; that for `Cc1cc2c(cc1C)C(=O)C1(C2)Cc2c(C)ccc(C)c2C1=O` (configuration not stated), > 100 µM.

The subject of a further test is BT-549 breast. The experiment in a line: NCI tumour cell line growth inhibition, 48 h.
`CC1=NC(=Cc2cc(Br)cc(Br)c2)C(=O)N1n1c(-c2ccccc2)nc2ccccc2c1=O`: the TGI is > 100 µM.
Same read-out and setting: the value for `CN1C(=O)c2ccccc2OC12C=Cc1ccc(O)cc1O2` (configuration not stated) was 85.5 µM; that for `CN(C)CC1CCC/C(=C\c2ccc(Cl)cc2)C1=O` (configuration not stated) was 3.45 µM; that for `Cc1cc2c(cc1C)C(=O)C1(C2)Cc2c(C)ccc(C)c2C1=O` (configuration not stated) was > 100 µM.

The subject of the next test is HCC-2998 colon. The experiment in a line: NCI tumour cell line growth inhibition, 48 h.
For `CC1=NC(=Cc2cc(Br)cc(Br)c2)C(=O)N1n1c(-c2ccccc2)nc2ccccc2c1=O`, the TGI was > 100 µM.
Still for that read-out and setting: the result for `CN1C(=O)c2ccccc2OC12C=Cc1ccc(O)cc1O2` (configuration not stated) reads 50.8 µM; that for `CN(C)CC1CCC/C(=C\c2ccc(Cl)cc2)C1=O` (configuration not stated), 18.1 µM.
On the same count and under the same terms, the value for `Cc1cc2c(cc1C)C(=O)C1(C2)Cc2c(C)ccc(C)c2C1=O` (configuration not stated) was > 100 µM.

In a further test the test system is T-47D breast. As to the kind of experiment: NCI tumour cell line growth inhibition, 48 h.
Turning to `CC1=NC(=Cc2cc(Br)cc(Br)c2)C(=O)N1n1c(-c2ccccc2)nc2ccccc2c1=O`, the TGI is > 100 µM.
On the same count and under the same terms, the result for `CN1C(=O)c2ccccc2OC12C=Cc1ccc(O)cc1O2` (configuration not stated) reads 52.6 µM.
Same read-out and setting: the value for `CN(C)CC1CCC/C(=C\c2ccc(Cl)cc2)C1=O` (configuration not stated) was 13.4 µM.
For the molecule `Cc1cc2c(cc1C)C(=O)C1(C2)Cc2c(C)ccc(C)c2C1=O` (configuration not stated), the TGI was > 100 µM.

For a further test, the system named is U251 CNS. The experiment in a line: NCI tumour cell line growth inhibition, 48 h.
Consider `CC1=NC(=Cc2cc(Br)cc(Br)c2)C(=O)N1n1c(-c2ccccc2)nc2ccccc2c1=O`, for which the TGI was > 100 µM.
Turning to `CN1C(=O)c2ccccc2OC12C=Cc1ccc(O)cc1O2` (configuration not stated), the TGI is > 100 µM.
On to `CN(C)CC1CCC/C(=C\c2ccc(Cl)cc2)C1=O` (configuration not stated), for which the TGI was 9.08 µM.
On to `Cc1cc2c(cc1C)C(=O)C1(C2)Cc2c(C)ccc(C)c2C1=O` (configuration not stated), for which the TGI is > 100 µM.

Another test has as its system K-562 leukemia. The experiment in a line: NCI tumour cell line growth inhibition, 48 h.
For the molecule `CC1=NC(=Cc2cc(Br)cc(Br)c2)C(=O)N1n1c(-c2ccccc2)nc2ccccc2c1=O`, the TGI was > 100 µM.
Turning to `CN1C(=O)c2ccccc2OC12C=Cc1ccc(O)cc1O2` (configuration not stated), the TGI was > 100 µM.
On the same count and under the same terms, the result for `CN(C)CC1CCC/C(=C\c2ccc(Cl)cc2)C1=O` (configuration not stated) reads 4.89 µM; that for `Cc1cc2c(cc1C)C(=O)C1(C2)Cc2c(C)ccc(C)c2C1=O` (configuration not stated), > 100 µM.

The next test deals with PC-3 prostate. As to the kind of experiment: NCI tumour cell line growth inhibition, 48 h.
Take `CC1=NC(=Cc2cc(Br)cc(Br)c2)C(=O)N1n1c(-c2ccccc2)nc2ccccc2c1=O`: the TGI is > 100 µM.
The same measure, in the same setting: the result for `CN1C(=O)c2ccccc2OC12C=Cc1ccc(O)cc1O2` (configuration not stated) reads 59.2 µM; that for `CN(C)CC1CCC/C(=C\c2ccc(Cl)cc2)C1=O` (configuration not stated), 8 µM.
Still for that read-out and setting: the result for `Cc1cc2c(cc1C)C(=O)C1(C2)Cc2c(C)ccc(C)c2C1=O` (configuration not stated) reads > 100 µM.

The next test concerns IGROV1 ovarian. The experiment in a line: NCI tumour cell line growth inhibition, 48 h.
Consider `CC1=NC(=Cc2cc(Br)cc(Br)c2)C(=O)N1n1c(-c2ccccc2)nc2ccccc2c1=O`, for which the TGI is > 100 µM.
Take `CN1C(=O)c2ccccc2OC12C=Cc1ccc(O)cc1O2` (configuration not stated): the TGI was > 100 µM.
Same read-out and setting: the result for `CN(C)CC1CCC/C(=C\c2ccc(Cl)cc2)C1=O` (configuration not stated) reads 8.62 µM.
The same measure, in the same setting: the result for `Cc1cc2c(cc1C)C(=O)C1(C2)Cc2c(C)ccc(C)c2C1=O` (configuration not stated) reads > 100 µM.

In the next test the test system is HL-60(TB) leukemia. As to the kind of experiment: NCI tumour cell line growth inhibition, 48 h.
For `CC1=NC(=Cc2cc(Br)cc(Br)c2)C(=O)N1n1c(-c2ccccc2)nc2ccccc2c1=O`, the TGI was > 100 µM.
Same read-out and setting: the value for `CN1C(=O)c2ccccc2OC12C=Cc1ccc(O)cc1O2` (configuration not stated) was 58.5 µM.
Still for that read-out and setting: the value for `Cc1cc2c(cc1C)C(=O)C1(C2)Cc2c(C)ccc(C)c2C1=O` (configuration not stated) was > 100 µM.

The test system of another test is NCI-H23 lung. The experiment in a line: NCI tumour cell line growth inhibition, 48 h.
`CC1=NC(=Cc2cc(Br)cc(Br)c2)C(=O)N1n1c(-c2ccccc2)nc2ccccc2c1=O`: the TGI is > 100 µM.
Same read-out and setting: the result for `CN1C(=O)c2ccccc2OC12C=Cc1ccc(O)cc1O2` (configuration not stated) reads > 100 µM.
The same measure, in the same setting: the result for `CN(C)CC1CCC/C(=C\c2ccc(Cl)cc2)C1=O` (configuration not stated) reads 22.5 µM.

A further test concerns HCT-116 colon. The experiment in a line: NCI tumour cell line growth inhibition, 48 h.
For the molecule `CC1=NC(=Cc2cc(Br)cc(Br)c2)C(=O)N1n1c(-c2ccccc2)nc2ccccc2c1=O`, the TGI is > 100 µM.
Same read-out and setting: the result for `CN1C(=O)c2ccccc2OC12C=Cc1ccc(O)cc1O2` (configuration not stated) reads 81 µM; that for `CN(C)CC1CCC/C(=C\c2ccc(Cl)cc2)C1=O` (configuration not stated), 3.55 µM.
`Cc1cc2c(cc1C)C(=O)C1(C2)Cc2c(C)ccc(C)c2C1=O` (configuration not stated): the TGI was > 100 µM.

In the next test the test system is CAKI-1 renal. The experiment in a line: NCI tumour cell line growth inhibition, 48 h.
With `CC1=NC(=Cc2cc(Br)cc(Br)c2)C(=O)N1n1c(-c2ccccc2)nc2ccccc2c1=O`, the TGI was > 100 µM.
On the same count and under the same terms, the result for `CN1C(=O)c2ccccc2OC12C=Cc1ccc(O)cc1O2` (configuration not stated) reads 58 µM; that for `CN(C)CC1CCC/C(=C\c2ccc(Cl)cc2)C1=O` (configuration not stated), 3.72 µM.
The same measure, in the same setting: the result for `Cc1cc2c(cc1C)C(=O)C1(C2)Cc2c(C)ccc(C)c2C1=O` (configuration not stated) reads > 100 µM.
